In this assay the target is T1, soluble epoxide hydrolase (sEH) (Homo sapiens, UniProt P34913).
T1 sequence (P34913 1-555): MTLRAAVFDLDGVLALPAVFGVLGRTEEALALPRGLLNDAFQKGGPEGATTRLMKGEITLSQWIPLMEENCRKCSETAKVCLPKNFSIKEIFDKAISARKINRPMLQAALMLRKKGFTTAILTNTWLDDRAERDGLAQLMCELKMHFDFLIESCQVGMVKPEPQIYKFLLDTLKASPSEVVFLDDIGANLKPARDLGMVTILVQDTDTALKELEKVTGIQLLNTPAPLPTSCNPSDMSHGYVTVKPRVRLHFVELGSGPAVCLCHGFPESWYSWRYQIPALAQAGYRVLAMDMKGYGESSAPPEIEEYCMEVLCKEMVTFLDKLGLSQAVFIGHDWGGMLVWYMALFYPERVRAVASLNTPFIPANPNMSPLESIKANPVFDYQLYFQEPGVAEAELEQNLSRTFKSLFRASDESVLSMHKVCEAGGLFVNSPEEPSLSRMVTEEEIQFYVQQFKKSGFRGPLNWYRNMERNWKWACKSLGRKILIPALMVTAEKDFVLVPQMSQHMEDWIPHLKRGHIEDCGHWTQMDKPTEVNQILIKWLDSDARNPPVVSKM
Put plainly: recombinant enzyme inhibition. It is filed as biochemical.

For `O=C(Nc1ccc(Cl)cc1)Nc1ccc(Cl)c(Cl)c1` [TCC, 3,4,4′-trichlorocarbanilide], the inhibition constant (Ki) is 96 nM.

The values are drawn from paper PMC3156297 (2011).
